For assay [1], the system named is enveloped viral inactivation. The conditions noted are these: under a diverse set of experimental conditions; cited from earlier work.
The next assay deals with XMuLV. The assay is classed as cell-based, Xenotropic Murine Leukemiavirus.

Data on two molecules can be found in patent US20220295791A1, “METHODS FOR VIRAL INACTIVATION BY ENVIRONMENTALLY COMPATIBLE DETERGENTS” (Eli Lilly and Company, priority 2019, published 2022).

Turning to Triton X-100, in assay [1], the enveloped viral inactivation result is listed as “greater than 4 logs”.
Take `CC(O)CO` (centres unmarked) [monopropylene glycol]: in the assay on XMuLV, the XMuLV inactivation entry was “not inactivate XMuLV”.
